This note sets out measurements from ChEMBL document CHEMBL1641449, “A novel transition state analog inhibitor of guanase based on azepinomycin ring structure: Synthesis and biochemical assessment of enzyme inhibition” (Bioorg Med Chem Lett, 2011).

For the assay, the target named is T1, Guanine deaminase (Homo sapiens, UniProt Q9Y2T3).
T1 sequence (Q9Y2T3 whole entry): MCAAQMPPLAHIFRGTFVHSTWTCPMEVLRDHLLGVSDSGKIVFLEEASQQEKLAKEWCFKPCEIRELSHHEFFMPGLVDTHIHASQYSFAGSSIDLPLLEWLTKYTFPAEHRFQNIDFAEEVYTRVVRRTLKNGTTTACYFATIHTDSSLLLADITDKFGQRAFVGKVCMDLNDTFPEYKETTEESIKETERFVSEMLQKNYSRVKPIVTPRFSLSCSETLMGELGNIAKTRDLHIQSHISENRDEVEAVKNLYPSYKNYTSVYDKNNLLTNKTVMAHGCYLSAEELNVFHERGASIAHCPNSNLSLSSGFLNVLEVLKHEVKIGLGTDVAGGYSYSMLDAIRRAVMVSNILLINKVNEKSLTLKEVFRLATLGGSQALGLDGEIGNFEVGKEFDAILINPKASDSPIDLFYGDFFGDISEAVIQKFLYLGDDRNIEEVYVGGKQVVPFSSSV
Nature of the assay: Competitive inhibition of guanase by Lineweaver-Burk plot analysis.

On to `O=C(NC1(CO)NC(=O)c2ncn(Cc3ccccc3)c2NC1=O)OCc1ccccc1` (stereo unspecified), for which the Ki (as a rule, a dissociation constant, usually derived from enzyme kinetics or from competition with a known ligand) is 16.7 µM. That is a double-digit micromolar value.
